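Tested at 5 concentrations; 48 h exposure; 96-well plates; endpoints linearly interpolated, else capped at highest concentration. GI50 = concentration required for 50% inhibition of growth.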 The source made the active and inactive calls. Cut-off read from the data, not from the text of the source: active = GI50 up to about 1.1 µM and inactive = higher.
How the values were obtained:
Test in all cases: NCI tumour cell line growth inhibition, 48 h
[1] = system: HCC 2998
[2] = system: SNB-75
[3] = system: SK-MEL-2
[4] = system: SNB-19
[5] = system: HOP-92
[6] = system: NCI-H460
[7] = system: IGROV-1
[8] = system: SW-620
[9] = system: HCT-15
[10] = system: HT-29
[11] = system: HL-60
[12] = system: MOLT-4
[13] = system: SK-MEL-5
[14] = system: COLO 205
[15] = system: PC-3
[16] = system: SK-MEL-28
[17] = system: CCRF-CEM
[18] = system: Malme-3M
[19] = system: DU-145
[20] = system: TK-10
[21] = system: LOX IMVI
[22] = system: MDA-N
[23] = system: BT-549
[24] = system: SF-295
[25] = system: SF-268
[26] = system: SK-OV-3
[27] = system: 786-0
[28] = system: T47D
[29] = system: RPMI-8226
[30] = system: OVCAR-4
[31] = system: OVCAR-5
[32] = system: MDA-MB-435
[33] = system: HOP-62
[34] = system: ACHN
[35] = system: Hs-578T
[36] = system: M14
[37] = system: SR
[38] = system: UACC-257
[39] = system: SF-539
[40] = system: KM12
[41] = system: RXF 393
[42] = system: UACC-62
[43] = system: NCI/ADR-RES
[44] = system: MCF7
[45] = system: HCT-116
[46] = system: OVCAR-8
[47] = system: UO-31
[48] = system: NCI-H226
[49] = system: A498
[50] = system: A549
[51] = system: EKVX
[52] = system: SN12C
[53] = system: K562
[54] = system: U-251
[55] = system: OVCAR-3
[56] = system: NCI-H23
[57] = system: CAKI-1
[58] = system: NCI-H522
[59] = system: MDA-MB-231

Measured: GI50

CC(C)(C)SC1=CCC[C@@H](P(=O)(c2ccccc2)c2ccccc2)[C@@H]2CCC[C@@H]12
16.6 µM: [9]
inactive: [1] 16.2 µM | [2] 11.8 µM | [3] 16.5 µM | [4] 16.1 µM | [5] 13.7 µM | [6] 15.7 µM | [7] 17.2 µM | [8] 27 µM | [10] 14.2 µM | [11] 20 µM | [12] 16 µM | [13] 17.7 µM | [14] 18 µM | [15] 14 µM | [16] 24.3 µM | [17] 24.6 µM | [18] 19.6 µM | [19] 17.2 µM | [20] 17.5 µM | [21] 17.5 µM | [22] 16.1 µM | [23] 17.8 µM | [24] 15.1 µM | [25] 17.8 µM | [26] 15.9 µM | [27] 16.7 µM | [28] 14 µM | [29] 19.1 µM | [30] 14.3 µM | [31] 13.6 µM | [32] 15 µM | [33] 17 µM | [34] 16.5 µM | [35] 20.7 µM | [36] 15.3 µM | [37] 17 µM | [38] 17 µM | [39] 18.8 µM | [40] 16.3 µM | [41] 13.8 µM | [42] 12.4 µM | [43] 17.2 µM | [44] 16.2 µM | [45] 14.3 µM | [46] 18.3 µM | [47] 16.5 µM | [48] 17.7 µM | [49] 15.8 µM | [50] 17.2 µM | [51] 18.6 µM | [52] 15.7 µM | [53] 19.3 µM | [54] 17.5 µM | [55] 17 µM | [56] 17.2 µM | [57] 13.8 µM | [58] 15.7 µM

COc1cc(C(=O)N(Cc2cccnc2)C(=S)N(Cc2cccnc2)C(=O)c2cc(OC)c(OC)c(OC)c2)cc(OC)c1OC
inactive: [1] 24.3 µM | [2] 21.4 µM | [4] > 100 µM | [5] 15.1 µM | [6] 94 µM | [8] 32.9 µM | [10] 35.4 µM | [11] 37.2 µM | [12] 54.2 µM | [13] 76.9 µM | [14] 35 µM | [16] > 100 µM | [17] 30.3 µM | [18] 89.7 µM | [19] 52.2 µM | [20] 89.1 µM | [21] 30.7 µM | [22] 36 µM | [23] 28.5 µM | [24] > 100 µM | [25] 40.4 µM | [26] > 100 µM | [27] 36.2 µM | [28] 34.9 µM | [29] 56.6 µM | [30] 17.8 µM | [31] > 100 µM | [32] 31 µM | [33] 37.5 µM | [34] > 100 µM | [35] > 100 µM | [36] 94.8 µM | [37] 48.3 µM | [38] 70 µM | [39] > 100 µM | [40] 22.4 µM | [41] 38.4 µM | [42] 31.6 µM | [43] > 100 µM | [44] 19.9 µM | [45] 31 µM | [46] 28.7 µM | [47] 49.8 µM | [48] > 100 µM | [49] 23.2 µM | [50] > 100 µM | [51] > 100 µM | [52] 37.9 µM | [53] 52 µM | [55] 34.4 µM | [56] 49.2 µM | [57] 30.4 µM | [58] 23.9 µM
37.7 µM: [9]

c1csc(-c2ccc(-c3ccsc3)s2)c1
inactive: [1] > 100 µM | [2] 57.4 µM | [3] > 100 µM | [4] > 100 µM | [5] > 100 µM | [6] > 100 µM | [7] > 100 µM | [8] > 100 µM | [10] > 100 µM | [11] > 100 µM | [12] > 100 µM | [13] > 100 µM | [14] > 100 µM | [15] 97.5 µM | [16] > 100 µM | [17] > 100 µM | [59] > 100 µM | [18] > 100 µM | [20] > 100 µM | [21] > 100 µM | [22] > 100 µM | [23] > 100 µM | [24] > 100 µM | [25] > 100 µM | [26] > 100 µM | [27] > 100 µM | [28] > 27.4 µM | [29] > 100 µM | [30] > 100 µM | [31] > 100 µM | [32] > 100 µM | [33] > 100 µM | [34] > 100 µM | [35] 98.4 µM | [36] > 100 µM | [37] > 100 µM | [38] > 100 µM | [39] 68.5 µM | [40] > 100 µM | [41] > 87.9 µM | [42] > 100 µM | [43] > 100 µM | [44] > 100 µM | [45] > 100 µM | [46] > 100 µM | [47] > 100 µM | [48] > 75.5 µM | [49] > 100 µM | [50] > 100 µM | [51] > 87.3 µM | [52] > 100 µM | [53] > 100 µM | [54] > 100 µM | [56] > 100 µM | [57] > 100 µM | [58] > 100 µM
> 100 µM: [9]

COC(=O)C1=C(OC)[C@H]2C#C/C=C\C#C[C@@H]3Nc4c(cc(O)c5c4C(=O)c4ccccc4C5=O)[C@]24O[C@@]34[C@H]1C
< 0.01 µM: [9]
active: [1] < 0.01 µM | [2] < 0.01 µM | [3] 0.0585 µM | [4] < 0.01 µM | [5] < 0.01 µM | [6] < 0.01 µM | [7] < 0.0127 µM | [8] < 0.01 µM | [10] < 0.01 µM | [11] < 0.01 µM | [12] < 0.01 µM | [13] < 0.01 µM | [14] < 0.01 µM | [15] < 0.01 µM | [16] < 0.0229 µM | [17] < 0.01 µM | [59] < 0.01 µM | [18] < 0.01 µM | [19] < 0.01 µM | [20] 0.0327 µM | [21] < 0.01 µM | [22] < 0.01 µM | [23] < 0.01 µM | [24] < 0.01 µM | [25] < 0.01 µM | [26] < 0.01 µM | [27] < 0.01 µM | [29] < 0.01 µM | [30] 0.0519 µM | [31] < 0.01 µM | [32] < 0.01 µM | [33] < 0.01 µM | [34] < 0.01 µM | [35] 0.173 µM | [36] < 0.01 µM | [37] < 0.01 µM | [38] < 0.01 µM | [39] < 0.01 µM | [40] < 0.01 µM | [42] < 0.01 µM | [43] < 0.01 µM | [44] < 0.01 µM | [45] 0.0555 µM | [46] < 0.01 µM | [47] < 0.01 µM | [48] < 0.01 µM | [49] < 0.01 µM | [50] < 0.01 µM | [51] < 0.012 µM | [52] < 0.01 µM | [53] < 0.01 µM | [54] < 0.01 µM | [55] < 0.0153 µM | [56] < 0.01 µM | [57] < 0.01 µM | [58] < 0.01 µM

Reference: ChEMBL document CHEMBL1201862, “PubChem BioAssay data set” (2004)
